From patent US11124605B2, “Antimicrobial alpha-helical cationic polypeptides” (priority 2015, dated 2021)

Legend:
MG1655 (E. coli) = test: Minimal inhibitory concentration (MIC); assay type: cell-based, Escherichia coli; conditions: without polypeptide
Experimental: (§1) Gram-negative bacteria, DH5a (E. coli), MG1655 (E. coli), C101 (Pseudomonas aeruginosa), and Gram-positive bacteria, ATCC12608 (S. aureus), ATCC11778 (Bacillus toyonensis), and methicillin-resistant S. aureus (MRSA) strains, NRS382, NRS383, NRS384 were grown in LB medium at 37° C. Clinical isolated Helicobacter pylori strains, B107, J291, J99, J99-AF, J99-A9 and J99-A11 were incubated in BB with 10% FBS supplemented with vancomycin (5 μg/mL) at 37° C. Among them, J99-AF, J99-A9 and J99-A11 are drug resistant bacteria. For determination of the MIC, polypeptides were dissolved in media using serial dilutions from a stock solution. Into each well of a 96-well plate was added 200 μL of each concentration and 2 μL of bacteria (1×10^8 CFU (colony forming units)) in medium. The plate was incubated at 37° C. The optical density readings of microorganism solutions were measured after 24 h incubation. The MIC was considered as the lowest concentration of peptide where no visual growth of bacteria was detected.

[1] = test system: C101 (Pseudomonas aeruginosa); test: Minimal inhibitory concentration (MIC); assay type: cell-based; conditions: without polypeptide
Experimental: as §1

[2] = test system: ATCC12608 (Staphylococcus aureus); test: Minimal inhibitory concentration (MIC); assay type: cell-based; conditions: without polypeptide
Experimental: as §1
The stability of polypeptide was tested in the MIC assay in different environments, including salts, serum, plasma, tear fluid, and mucin. […]

DH5α (Escherichia coli) = test: Minimal inhibitory concentration (MIC); assay type: cell-based; conditions: without polypeptide
Experimental: Gram-negative bacteria, DH5a (E. coli), MG1655 (E. coli), C101 (Pseudomonas aeruginosa), and Gram-positive bacteria, ATCC12608 (S. aureus), ATCC11778 (Bacillus toyonensis), and methicillin-resistant S. aureus (MRSA) strains, NRS382, NRS383, NRS384 were grown in LB medium at 37° C. […] For determination of the MIC, polypeptides were dissolved in media using serial dilutions from a stock solution. Into each well of a 96-well plate was added 200 μL of each concentration and 2 μL of bacteria (1×10^8 CFU (colony forming units)) in medium. The plate was incubated at 37° C. The optical density readings of microorganism solutions were measured after 24 h incubation. The MIC was considered as the lowest concentration of peptide where no visual growth of bacteria was detected.

[3] = test system: ATCC11778 (Bacillus toyonensis); test: Minimal inhibitory concentration (MIC); assay type: cell-based; conditions: without polypeptide
Experimental: as §1

[4] = test system: trypsin, pronase, elastase from Pseudomonas aeruginosa, elastase from human leukocytes; test: Stability of polypeptides against protease (HPLC); assay type: in vitro ADME; conditions: 8 h incubation with trypsin, P. aeruginosa elastase or human leukocyte elastase
Experimental: As a positive control, LL-37 (0.1 mg/mL) was also incubated with trypsin (0.1 mg/mL) or pronase (12 mg/L) or Pseudomonas Aeruginosa elastase (0.6 mg/L) in Tris buffer (pH 7.4) at 37° C. LL-37 (0.1 mg/mL) was incubated with elastase from human leukocytes (2.5 mg/L) in sodium acetate buffer at 37° C. After 8 h of incubation, the samples were taken out for HPLC analyses.

## C[C@H]1c2cccc(O)c2C(=O)C2=C(O)[C@]3(O)C(=O)C(C(N)=O)=C(O)[C@@H](N(C)C)[C@@H]3[C@@H](O)[C@@H]21 [Doxycycline, doxycycline]
MG1655 (E. coli)
  MIC of antibiotic: 4.5 µM
[1]
  MIC of antibiotic: 288.0 µM

## CO[C@H]1/C=C/O[C@@]2(C)Oc3c(C)c(O)c4c(O)c(c(/C=N/N5CCN(C)CC5)c(O)c4c3C2=O)NC(=O)/C(C)=C\C=C\[C@H](C)[C@H](O)[C@@H](C)[C@@H](O)[C@@H](C)[C@H](OC(C)=O)[C@@H]1C [Rifampicin, rifampicin]
MG1655 (E. coli)
  MIC of antibiotic: 9.7 µM
[1]
  MIC of antibiotic: 77.8 µM

## [H]/N=C(/N)N[C@H]1[C@H](O)[C@@H](O)[C@H](O[C@@H]2O[C@@H](C)[C@](O)(C=O)[C@H]2O[C@@H]2O[C@@H](CO)[C@H](O)[C@@H](O)[C@@H]2NC)[C@@H](N/C(N)=N\[H])[C@@H]1O [Streptomycin, streptomycin]
[2]
  MIC of antibiotic: 6.9 µM
DH5α (Escherichia coli)
  MIC of antibiotic: 6.9 µM
[3]
  MIC of antibiotic: 6.9 µM

## LL-37
[4]
  proteolytic degradation by HPLC: readily degraded

## gentamicin
MG1655 (E. coli)
  MIC of antibiotic: 2.1 µM
[1]
  MIC of antibiotic: 8.4 µM
